This assay relates to protease. Nature of the assay: Protease activity in NRK-52E cell extract. The assay is classed as biochemical. The settings on record: 0.1 μM and 10 μM. The protocol: As a follow up to Example 8, the effects of the EndoG inhibitors PNR-3-80 and PNR-3-82, at 0.1 μM and 10 μM each, on the activities of four other enzymes including RNase A, protease, LDH, and SOD in NRK-52E cell extract were examined. NRK-52E cells were grown to ˜80% confluence in […]. The medium was aspirated and the cells were rinsed with ice cold 1×PBS, pH 7.4. The cells were lysed in 50 mM Tris-HCl, pH 7.4, 150 mM NaCl, 1% Triton X-100 for 10 min on ice and then briefly sonicated. Cell debris was removed by centrifugation at 13,000×g for 10 min at 4° C. The supernatant was collected and stored at −80° C. until use. LDH, Protease, Superoxide dismutase (SOD), and Ribonuclease A (RNase A) activities were measured by using CytoTox 96® Non-Radioactive Cytotoxicity Assay kit (Promega, Madison, Wis.), Protease Fluorescent Detection kit (Sigma-Aldrich, Saint Louis, Mo.), SOD determination kit (Sigma-Aldrich, Saint Louis, Mo.), and Ribonuclease A Detection kit (Sigma-Aldrich, Saint Louis, Mo.), respectively, according to the manufacturer's instructions.

The structures appear in SMILES notation.

On to `COc1ccc2c(c1)c(C=C1C(=O)NC(=S)NC1=O)cn2C(=O)c1ccc2ccccc2c1` [PNR-3-82], for which the protease activity entry is reported as “none of the two tested compounds had any inhibiting activity”.

For the origin of these results see patent US20160075689A1, “POLYMERASE, ENDONUCLEASE, AND HELICASE INHIBITORS AND METHODS OF USING THEREOF” (THE BOARD OF TRUSTEES OF THE UNIVERSITY OF ARKANSAS, priority 2013, published 2016).
